The nature of series [1]: Metabolite identification in liver microsomes. The class given is in vitro ADME, rat, dog, monkey, human. To be noted: human microsomes. The method, then: To determine the qualitative metabolic profile, 30 μM of Compound 1 was incubated aerobically with rat, dog, monkey, or human liver microsomes (1 mg/mL). The incubations were performed in phosphate buffer at pH 7.4, 37° C., with the reaction initiated by the addition of P-NADPH, GSH and/or UDPGA (1, 5 and 2 mM final concentration, respectively). The reaction was terminated by the addition of 3 times incubation volume of acetonitrile after 60 minutes. The sample was centrifuged and the supernatant was transferred, nitrogen blow dried and reconstituted in 50% acetonitrile in water for LC/MS analysis.
LC/MS/MS analysis was carried out with a Sciex API-4000Qtrap tandem mass spectrometer (Applied Biosystems/Life Technologies, Carlsbad, Calif.) interfaced to a high-performance liquid chromatography system consisting of an Agilent 1200 series pump (Foster City, Calif.) and a LEAP Technologies PAL autoinjector (Carrboro, N.C.).
Parent/metabolite analysis was conducted in the positive ion mode (ESI) by multiple reaction monitoring of parent. The mobile phases contained 10 mM ammonium acetate in water with 0.05% formic acid (solvent A) and 10 mM ammonium acetate in 50% acetonitrile/50% methanol with 0.05% formic acid (solvent B). For Compound 1, the flow rate was maintained at 1 mL/min and the total run time was 2.5 min. Analytes were separated on a YMC ODS-AQ column (2.1×150 mm; 3 μm) and eluted with a linear gradient as follows: • 1. mobile phase was held for 0.5 min at 5% B, • 2. B was increased from 5% to 95% over the next 0.2 min, • 3. B was held constant for 1.3 min at 95%, and • 4. B was returned to the initial gradient conditions.
GSH adducts were investigated in microsomes, hepatocytes and rat bile using several methods including the neutral loss of pyroglutamate (129 Da) as well as a precursor ion scans of Compound 1 (105 Da, 318 Da and 438 Da).
For metabolite quantitation, the flow rate was maintained at 0.25 mL/min and the total run time was 60 min. Analytes were separated using a linear gradient as follows: • 1. mobile phase was held for 5 min at 5% B, • 2. […]
For orientation: Microsomes from liver hold many membrane-bound enzymes, among them those of drug oxidation.

The nature of series [2]: Solubility assessment at various pH levels (solubility profile). Format: physicochemical. To be noted: 0.15M NaCl solution, saline or isotonic, thermodynamic from solid. The method, then:
For solubility assessment at various pH levels sufficient material to produce a maximum concentration of 10 mg·ml^−1 of API was treated with 0.15M NaCl solution and then the pH adjusted with HCl or NaOH solutions to achieve the desired pH levels. The suspensions were allowed to equilibrate for 2 hours and the pH measured and adjusted if necessary. Suspensions were then filtered and the amount of dissolved API quantified by HPLC against a standard reference solution.
Analysis was performed on an Agilent HP1100 series system equipped with a diode array detector and using ChemStation software vB.02.01-SR1.
The solubility of both the free acid and amorphous sodium salt was determined at a range of pH values.

Another series concerns the target T1, Human LPA3 (Homo sapiens, UniProt Q9UBY5).
T1 construct: The full-length cDNA fragment for human LPA3 was obtained by PCR from the vector
T1 sequence (Q9UBY5 1-353): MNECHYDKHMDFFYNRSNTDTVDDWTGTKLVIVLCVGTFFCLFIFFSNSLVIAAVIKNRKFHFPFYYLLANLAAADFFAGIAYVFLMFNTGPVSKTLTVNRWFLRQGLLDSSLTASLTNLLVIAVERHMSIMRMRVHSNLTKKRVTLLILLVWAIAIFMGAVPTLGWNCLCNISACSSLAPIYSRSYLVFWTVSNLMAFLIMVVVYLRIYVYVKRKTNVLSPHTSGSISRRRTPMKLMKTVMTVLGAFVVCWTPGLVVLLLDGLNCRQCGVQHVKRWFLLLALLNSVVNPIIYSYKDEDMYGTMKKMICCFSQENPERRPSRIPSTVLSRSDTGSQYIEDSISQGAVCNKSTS
Put plainly: LPA3 Calcium Flux Assay. The conditions noted are these: human LPA3 expressing CHO cells, 10 nM LPA; read-out: Ca Flux IC50 LPA3. Format: cell-based. How it is done: A vector containing the human LPA3 receptor cDNA was obtained from the Missouri S&T cDNA Resource Center (www.cdna.org). The full-length cDNA fragment for human LPA3 was obtained by PCR from the vector. The nucleotide sequence of the cloned human LPA3 was determined by sequencing and confirmed to be identical to the published human LPA3 sequence (NCBI accession number NM_012152). The cDNA was cloned into the pCDNA5/FRT expression plasmid and transfected in CHO cells using lipofectamine 2000 (Invitrogen Corp., USA). Clones stably expressing human LPA3 were selected using hygromycin and identified as cells that show Ca-influx in response to LPA.
Human LPA1 or LPA3 expressing CHO cells are seeded at 20,000-45,000 cells per well in a 96-well poly-D-lysine coated plate one or two days before the assay. Prior to the assay, the cells are washed once with PBS and then cultured in serum-free media overnight. On the day of the assay, a calcium indicator dye (Calcium 4, Molecular Devices) in assay buffer (HBSS with Ca^2+ and Mg^2+ and containing 20 mM Hepes and 0.3% fatty-acid free human serum albumin) is added to each well and incubation continued for 1 hour at 37° C. 10 μl of test compound in 2.5% DMSO are added to the cells and incubation continued at room temperature for 30 minutes. Cells are the stimulated by the addition of 10 nM LPA and intracellular Ca^2+ measured using the Flexstation 3 (Molecular Devices). IC50s are determined using Graphpad prism analysis of drug titration curves.
(In general: Calcium flux is commonly read through the fluorescence of an indicator in the cells.)

Here are results for one molecule from patent US20170121295A1, “POLYCYCLIC LPA1 ANTAGONIST AND USES THEREOF” (AMIRA PHARMACEUTICALS, INC., priority 2010, published 2017).

Values after ≈ are worked out from the molar mass of the structure shown. A value given as a limit tells only on which side of the number the result lay.

By solubility is commonly meant the dissolved amount per volume that the medium holds. In general, IC50 refers to the concentration at which inhibition is half-maximal. For `Cc1noc(-c2ccc(-c3ccc(C4(C(=O)O)CC4)cc3)cc2)c1NC(=O)O[C@H](C)c1ccccc1` [Compound 1, 1-{4′-[3-methyl-4-((R)-1-phenyl-ethoxycarbonylamino)-isoxazol-5-yl]-biphenyl-4-yl}-cyclopropanecarboxylic acid], the “GSH adduct in microsomes” value in series [1] was “No GSH adduct was observed”. Also, the solubility at 2 h in series [2] (Target pH 3, pH adjusted with HCl or NaOH) was below 1 µg/mL; in series [2] (Target pH 4, pH adjusted with HCl or NaOH), below 1 µg/mL; in series [2] (Target pH 5, pH adjusted with HCl or NaOH), below 1 µg/mL; in series [2] (Target pH 6, pH adjusted with HCl or NaOH), below 1 µg/mL; in series [2] (Target pH 7, pH adjusted with HCl or NaOH), 3.3 µg/mL (≈ 6.84 µM); in series [2] (Target pH 8, pH adjusted with HCl or NaOH), 35 µg/mL (≈ 72.5 µM). Also, the solubility at 2 h in series [2] (Target pH 9, pH adjusted with HCl or NaOH) is 930 µg/mL (≈ 1930 µM); in series [2] (Target pH 11, pH adjusted with HCl or NaOH) it was 13000 µg/mL (≈ 26900 µM). Moreover, at Human LPA3, the IC50 is above 1000 nM.
